These results are taken from patent publication US20260174769A1, “MACROCYCLIC COMPOUNDS AND METHODS OF USE” (AMGEN INC., priority 2022, published 2026).

Usually IC50 stands for the concentration that inhibits the measured activity by half.

Where a name gives a salt, the structure may show the parent alone. Read-outs that look alike come from different tables or passages of the source.

In the assay the target is His-tagged KRAS G12D protein (Homo sapiens, UniProt P01116, G12D). In words: KRAS G12D TR-FRET Assay. The format is binding. On the procedure:
The His-tagged KRAS G12D protein (Amgen) was diluted to 20 nM in Assay Buffer (20 mM HEPES, pH 7.4, 10 mM MgCl2, 50 mM NaCl, 0.1% BSA, 0.01% Tween-20, 10 μM GDP) and 2 μL was added to the appropriate wells of the 384-well plate. The plate was incubated for 30 minutes at room temperature. Biotinylated KRPep-2d substrate (Amgen) was diluted to 20 nM in Assay Buffer and 2 μL was added to all wells and incubated for 1 hour at room temperature. Detection Reagent (0.4 nM LANCE Eu-W1024 Anti-6×His (Perkin Elmer AD0401), 5 nM streptavidin-d2 (Cisbio 610SADLA)) was prepared in Assay Buffer, then 4 μL was added to the plate and incubated for 1 hour at room temperature.
On the technique in general: TR-FRET usually uses a lanthanide donor and a delayed reading to cut background.

The mark [1] stands for this setting: TR-FRET, read-out: KRAS G12D Binding IC50.

Sequence of His-tagged KRAS G12D protein (P01116 1-188 isoform P01116-2 G12D): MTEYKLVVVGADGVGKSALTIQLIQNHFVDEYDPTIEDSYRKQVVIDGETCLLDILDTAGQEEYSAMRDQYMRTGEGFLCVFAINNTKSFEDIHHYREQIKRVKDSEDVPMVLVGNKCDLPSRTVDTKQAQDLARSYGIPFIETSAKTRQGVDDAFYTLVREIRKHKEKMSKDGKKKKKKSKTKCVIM

In the case of `Cc1cc2[nH]ncc2c2c1CCCOC(=O)N[C@@]1(C)CCCCN(C1)c1nc(OC[C@@]34CCCN3C[C@H](F)C4)nc3c(F)c-2ncc13` (single isomer, unassigned) [Example 293], the IC50 (TR-FRET binding) is 50000 nM.
For the setting “TR-FRET binding”, `O=C1OCCCc2c(Cl)cc3[nH]ncc3c2-c2ncc3c(nc(OC[C@@]45CCCN4C[C@H](F)C5)nc3c2F)N2CC[C@@H]3CCN1[C@@H]3C2` (single isomer, unassigned) [Example 176] returned an IC50 of 287 nM.
The same measure, in the same setting: the same measure for `Cc1cc2[nH]ncc2c2c1CCCC(F)C(=O)N[C@@H]1CCCCN(C1)c1nc(OC[C@@]34CCCN3C[C@H](F)C4)nc3c(F)c-2ncc13` (single isomer, unassigned) [Example 160]: 4 nM; for `O=C1OCCCc2c(Cl)cc3[nH]ncc3c2-c2ncc3c(nc(OC[C@@]45CCCN4C[C@H](F)C5)nc3c2F)N2CCOC[C@](CF)(C2)O1` (single isomer, unassigned) [Example 311]: 5 nM.
Same read-out and setting: under `O=C1N[C@@H]2CCCCN(C2)c2nc(OC[C@@]34CCCN3C[C@H](F)C4)nc3c(F)c(ncc23)-c2c3c(cc4[nH]ncc24)CC[C@@H]3CCO1` (single isomer, unassigned) [Example 302] stands 1270 nM; under `Cc1cc2[nH]ncc2c2c1CCCCO[C@H](C)[C@@H]1CN(CCO1)c1nc(OC[C@@]34CCCN3C[C@H](F)C4)nc3c(F)c-2ncc13` (single isomer, unassigned) [Example 243], 4480 nM; under `O=C1CCCCc2c(Cl)cc3[nH]ncc3c2-c2ncc3c(nc(OC[C@@]45CCCN4C[C@H](F)C5)nc3c2F)N2CC[C@H]3CCN1[C@H]3C2` (single isomer, unassigned) [Example 62], 3 nM.
Regarding `Fc1c2ncc3c(nc(OC[C@@]45CCCN4C[C@H](F)C5)nc13)N1CCO[C@@H](COCC[C@@H]3C[C@@H]3c3c(Cl)cc4[nH]ncc4c3-2)C1` (single isomer, unassigned) [Example 392], under setting [1], the IC50 was 6 nM.
Molecule `Fc1c2ncc3c(nc(OC[C@@]45CCCN4C[C@H](F)C5)nc13)N1CCOC[C@@H](C1)c1cnn(n1)CCCc1c(Cl)cc3[nH]ncc3c1-2` (single isomer, unassigned) [Example 297] showed an IC50 (TR-FRET binding) of 8070 nM.
In turn, `[2H]C([2H])([2H])[C@]12COCCN(C1)c1nc(OC[C@@]34CCCN3C[C@H](F)C4)nc3c(F)c(ncc13)-c1c(c(C)cc3[nH]ncc13)CCCOC(=O)O2` (single isomer, unassigned) [Example 351] registered a concentration for half-maximal inhibition (IC50) (TR-FRET binding) of 464 nM.
With `Fc1c2ncc3c(nc(OC[C@@]45CCCN4C[C@H](F)C5)nc13)N1CCOC[C@@H](Cc3ncc(o3)CCc3c(Cl)cc4[nH]ncc4c3-2)C1` (single isomer, unassigned) [Example 376], the IC50 under setting [1] amounted to 16 nM.
`Fc1c2ncc3c(nc(OC[C@@]45CCCN4C[C@H](F)C5)nc13)N1CCC[C@@H](C1)c1coc(n1)CCCc1c(Cl)cc3[nH]ncc3c1-2` (single isomer, unassigned) [Example 245] registered an IC50 (TR-FRET binding) of 583 nM.
`O=C1CCCCc2c(Cl)cccc2-c2ncc3c(nc(OC[C@@]45CCCN4C[C@H](F)C5)nc3c2F)N2CC[C@@H]3CCN1[C@@H]3C2` (single isomer, unassigned) [Example 163]: the IC50 (TR-FRET binding) worked out at 2840 nM.
The same measure, in the same setting: under `C[C@H](Oc1nc2c3cnc(c(F)c3n1)-c1c(c(Cl)cc3[nH]ncc13)CCCOC(=O)O[C@@H]1COCCN2C1)[C@@H]1CCCN1C` (single isomer, unassigned) [Example 204] stands 34 nM; under `C[C@@]12CCCN(C1)c1nc(OC[C@@]34CCCN3C[C@H](F)C4)nc3c(F)c(ncc13)-c1cc(O)cc3c1[C@@H](CCCC(=O)N2)CCC3` (single isomer, unassigned) [Example 27, 2,2,2-trifluoroacetate salt], 7 nM; under `O=C1OC/C=C\c2c(Cl)cc3[nH]ncc3c2-c2ncc3c(nc(OC[C@@]45CCCN4C[C@H](F)C5)nc3c2F)N2CCC[C@H](C2)O1` (single isomer, unassigned) [Example 122], 5 nM.
